# In US10968199B2, “Cycloalkyl-containing apoptosis signal-regulating kinase 1 inhibitors and methods of use thereof” (ENANTA PHARMACEUTICALS, INC., priority 2018, dated 2021):
# Target: ASK1 kinase (Homo sapiens (Human), UniProt Q99683)
# Experiment: HTRF KinEASE assay of ASK1 kinase inhibition
# Format: biochemical
# Details: HTRF KinEASE-STK TR-FRET; 5 nM ASK1, 1 uM STK3 peptide substrate, 100 uM ATP, 3 hours
# Protocol: The ability (IC50) of compounds to inhibit ASK1 kinase activity was determined by HTRF® KinEASE™ Assay System.
# ASK1 was purchased from Thermofisher (Catalogue #PV4011), ATP was purchased from Sigma (Catalogue #A7699), HTRF® KinEASE™ Assay System was obtained from Cisbio (Bedford, Mass.). ½ Area plate was purchased from Perkin Elmer (Catalogue # #6005560). HTRF® KinEASE™-STK is a generic method for measuring serine/threonine kinase activities using a time-resolved fluorescence resonance energy transfer (TR-FRET) immunoassay. The IC50 value for each compound was determined in the presence of compound (various concentration from 0 to 10 μM) and a fixed amount of ATP and peptide substrates. The test compound, 1 uM STK3 peptide substrate, and 5 nM of ASK1 kinase are incubated with kinase reaction buffer containing 50 mM HEPES pH 7.5, 0.01% BRIJ-35, 10 mM MgCl2, and 1 mM EGTA for 30 minutes. 100 uM ATP is added to start kinase reaction and incubated for 3 hours. The STK3-antibody labeled with Eu^3+-Cryptate and 125 nM streptavidin-XL665 are mixed in a single addition with stop reagents provided by the Cisbio kit used to stop the kinase reaction. Fluorescence is detected using an Envision Multilabeled 2014 reader from PerkinElmer. The Fluorescence is measured at 615 nm (Cryptate) and 665 nm (XL665) and a ratio of 665 nm/615 nm is calculated for each well. The resulting TR-FRET is proportional to the phosphorylation level. Staurosporine was used as the positive control. IC50 was determined by XLfit 5.3.
# By using above method, the inhibition of ASK1 was tested for the compound of formula (I). IC50 ranges are as follows: A<1 nM; 1 nM<B<10 nM; C>10 nM.
# Sequence of ASK1 kinase (Q99683 whole entry): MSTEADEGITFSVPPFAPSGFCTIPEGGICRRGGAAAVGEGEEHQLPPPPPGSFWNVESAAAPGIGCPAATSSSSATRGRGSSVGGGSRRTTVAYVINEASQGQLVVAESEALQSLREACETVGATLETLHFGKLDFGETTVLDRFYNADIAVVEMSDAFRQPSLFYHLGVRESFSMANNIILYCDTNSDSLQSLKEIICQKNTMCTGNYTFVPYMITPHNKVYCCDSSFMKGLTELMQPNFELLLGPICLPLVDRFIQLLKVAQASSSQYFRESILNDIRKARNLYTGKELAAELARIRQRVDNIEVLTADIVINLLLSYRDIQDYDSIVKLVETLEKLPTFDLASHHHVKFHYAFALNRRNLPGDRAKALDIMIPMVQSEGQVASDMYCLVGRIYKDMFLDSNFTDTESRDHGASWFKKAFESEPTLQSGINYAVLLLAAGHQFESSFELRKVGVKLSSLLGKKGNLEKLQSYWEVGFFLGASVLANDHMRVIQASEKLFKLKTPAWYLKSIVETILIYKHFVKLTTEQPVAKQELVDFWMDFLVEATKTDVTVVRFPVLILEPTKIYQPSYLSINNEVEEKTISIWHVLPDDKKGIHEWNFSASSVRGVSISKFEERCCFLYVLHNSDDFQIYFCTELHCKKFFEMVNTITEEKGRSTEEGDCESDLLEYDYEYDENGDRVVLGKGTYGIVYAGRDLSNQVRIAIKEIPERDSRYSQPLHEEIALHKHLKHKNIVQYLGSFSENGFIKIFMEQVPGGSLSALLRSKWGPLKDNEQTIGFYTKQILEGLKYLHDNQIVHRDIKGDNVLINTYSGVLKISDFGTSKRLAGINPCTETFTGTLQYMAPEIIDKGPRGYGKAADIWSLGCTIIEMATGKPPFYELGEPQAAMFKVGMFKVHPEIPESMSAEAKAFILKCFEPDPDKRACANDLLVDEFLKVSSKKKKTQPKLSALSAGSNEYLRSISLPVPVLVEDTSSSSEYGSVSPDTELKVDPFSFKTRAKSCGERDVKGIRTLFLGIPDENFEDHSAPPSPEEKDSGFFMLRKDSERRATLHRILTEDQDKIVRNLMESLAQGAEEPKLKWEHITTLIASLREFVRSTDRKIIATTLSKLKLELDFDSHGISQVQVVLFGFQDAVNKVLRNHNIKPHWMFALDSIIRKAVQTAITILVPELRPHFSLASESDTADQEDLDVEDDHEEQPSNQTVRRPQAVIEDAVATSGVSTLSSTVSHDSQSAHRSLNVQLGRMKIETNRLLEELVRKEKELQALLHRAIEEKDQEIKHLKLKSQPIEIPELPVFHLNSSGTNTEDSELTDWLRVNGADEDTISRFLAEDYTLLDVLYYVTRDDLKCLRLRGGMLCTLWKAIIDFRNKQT
row,IC50,Compound
1,1 to 10 nM,"CCOC(=O)C1CC1c1cc(C(=O)Nc2cccc(-c3nncn3C(C)C)n2)c(F)cc1C (centres unmarked) [Example 1, ethyl 2-(4-fluoro-5-((6-(4-isopropyl-4H-1,2,4-triazol-3-yl)pyridin-2-yl)carbamoyl)-2-methylphenyl)cyclopropane-1-carboxylate]"
2,> 10 nM,"Cc1cc(F)c(C(=O)Nc2cccc(-c3nncn3C(C)C)n2)cc1C1CC1C(=O)O (centres unmarked) [Example 2, 2-(4-fluoro-5-((6-(4-isopropyl-4H-1,2,4-triazol-3-yl)pyridin-2-yl)carbamoyl)-2-methylphenyl)cyclopropane-1-carboxylic acid]"
3,> 10 nM,"Cc1cc(F)c(C(=O)Nc2cccc(-c3nncn3C(C)C)n2)cc1C1CC1C(=O)NC1CC1 (centres unmarked) [Example 3, 5-(2-(cyclopropylcarbamoyl)cyclopropyl)-2-fluoro-N-(6-(4-isopropyl-4H-1,2,4-triazol-3-yl)pyridin-2-yl)-4-methylbenzamide]"
4,1 to 10 nM,"Cc1cc(F)c(C(=O)Nc2cccc(-c3nncn3C(C)C)n2)cc1C1CC1NC(=O)OC(C)(C)C (centres unmarked) [Example 4, tert-butyl (2-(4-fluoro-5-((6-(4-isopropyl-4H-1,2,4-triazol-3-yl)pyridin-2-yl)carbamoyl)-2-methylphenyl)cyclopropyl)carbamate]"
5,> 10 nM,"Cc1cc(F)c(C(=O)Nc2cccc(-c3nncn3C(C)C)n2)cc1C1CC1NC(=O)N1CCC(F)(F)C1 (centres unmarked) [Example 5, 3,3-difluoro-N-(2-(4-fluoro-5-((6-(4-isopropyl-4H-1,2,4-triazol-3-yl)pyridin-2-yl)carbamoyl)-2-methylphenyl)cyclopropyl)pyrrolidine-1-carboxamide]"
6,> 10 nM,"Cc1cc(F)c(C(=O)Nc2cccc(-c3nncn3C(C)C)n2)cc1C1CC1NC(=O)c1ccc(F)cc1 (centres unmarked) [Example 6, 2-fluoro-5-(2-(4-fluorobenzamido)cyclopropyl)-N-(6-(4-isopropyl-4H-1,2,4-triazol-3-yl)pyridin-2-yl)-4-methylbenzamide]"
7,> 10 nM,"Cc1cc(F)c(C(=O)Nc2cccc(-c3nncn3C(C)C)n2)cc1C1CC1NS(=O)(=O)N(C)C (centres unmarked) [Example 7, 5-(2-((N,N-dimethylsulfamoyl)amino)cyclopropyl)-2-fluoro-N-(6-(4-isopropyl-4H-1,2,4-triazol-3-yl)pyridin-2-yl)-4-methylbenzamide]"
8,> 10 nM,"Cc1cnc(C(=O)Nc2cccc(-c3nncn3C(C)C)n2)cc1C1CC1NC(=O)OC(C)(C)C (centres unmarked) [Example 8, tert-butyl (2-(2-((6-(4-isopropyl-4H-1,2,4-triazol-3-yl)pyridin-2-yl)carbamoyl)-5-methylpyridin-4-yl)cyclopropyl)carbamate]"
9,> 10 nM,"Cc1cnc(C(=O)Nc2cccc(-c3nnnn3[C@H](C)CO)n2)cc1C1CC(NC(=O)OC(C)(C)C)C1 (stereo partly drawn) [Example 9, tert-butyl (R)-(3-(2-((6-(1-(1-hydroxypropan-2-yl)-1H-tetrazol-5-yl)pyridin-2-yl)carbamoyl)-5-methylpyridin-4-yl)cyclobutyl)carbamate]"
10,1 to 10 nM,Cc1cc(F)c(C(=O)Nc2cccc(-c3nncn3C(C)C)n2)cc1C1CC1NC(=O)OCC(F)(F)F (centres unmarked) [Example 10]
11,1 to 10 nM,Cc1cc(F)c(C(=O)Nc2cccc(-c3nncn3C(C)C)n2)cc1C1CC1NS(=O)(=O)C1CC1 (centres unmarked) [Example 11]
12,> 10 nM,Cc1cc(F)c(C(=O)Nc2cccc(-c3nncn3C(C)C)n2)cc1C1CC1C(=O)N1CCC(F)(F)C1 (centres unmarked) [Example 12]
13,> 10 nM,Cc1cc(F)c(C(=O)Nc2cccc(-c3nncn3C(C)C)n2)cc1C1CC1NC(=O)N(C)CCC(F)(F)F (centres unmarked) [Example 13]
14,> 10 nM,Cc1cc(F)c(C(=O)Nc2cccc(-c3nncn3C(C)C)n2)cc1C1CC1NC(=O)C(C)(C)C (centres unmarked) [Example 14]
15,1 to 10 nM,CCOC(=O)C1CC1c1cc(C(=O)Nc2cccc(-c3nncn3C(C)C)n2)ncc1C (centres unmarked) [Example 15]
16,1 to 10 nM,COc1cc(C)c(C2CC2C(=O)N2CCC(F)(F)C2)cc1C(=O)Nc1cccc(-c2nncn2C(C)C)n1 (centres unmarked) [Example 16]
17,1 to 10 nM,COc1cc(C)c(C2CC2NC(=O)OCC(F)(F)F)cc1C(=O)Nc1cccc(-c2nncn2C(C)C)n1 (centres unmarked) [Example 17]
18,1 to 10 nM,COc1cc(C)c(C2CC2NC(=O)N(C)CCC(F)(F)F)cc1C(=O)Nc1cccc(-c2nncn2C(C)C)n1 (centres unmarked) [Example 18]
19,> 10 nM,Cc1cnc(C(=O)Nc2cccc(-c3nncn3C(C)C)n2)cc1C1CC1NC(=O)OCC(F)(F)F (centres unmarked) [Example 19]
20,1 to 10 nM,COc1cc(C)c(C2CC2NS(=O)(=O)N(C)C)cc1C(=O)Nc1cccc(-c2nncn2C(C)C)n1 (centres unmarked) [Example 20]
21,1 to 10 nM,COc1cc(C)c(C2CC2NS(=O)(=O)CCC(F)(F)F)cc1C(=O)Nc1cccc(-c2nncn2C(C)C)n1 (centres unmarked) [Example 21]
22,1 to 10 nM,COc1cc(C)c(C2CC2NC(=O)c2ccc(F)cc2)cc1C(=O)Nc1cccc(-c2nncn2C(C)C)n1 (centres unmarked) [Example 22]
23,1 to 10 nM,COc1cc(C)c(C2CC2NC(=O)C(C)(C)C)cc1C(=O)Nc1cccc(-c2nncn2C(C)C)n1 (centres unmarked) [Example 23]
24,1 to 10 nM,Cc1cc(F)c(C(=O)Nc2cccc(-c3nncn3[C@H](C)CO)n2)cc1C1CC1C(=O)N1CCC(F)(F)C1 (some centres unmarked) [Example 24]
25,> 10 nM,Cc1cc(F)c(C(=O)Nc2cccc(-c3nncn3[C@H](C)CO)n2)cc1C1CC1NC(=O)OCC(F)(F)F (some centres unmarked) [Example 25]
26,1 to 10 nM,Cc1cc(F)c(C(=O)Nc2cccc(-c3nncn3[C@H](C)CO)n2)cc1C1CC1NC(=O)N(C)CCC(F)(F)F (some centres unmarked) [Example 26]
27,1 to 10 nM,Cc1cc(F)c(C(=O)Nc2cccc(-c3nncn3[C@H](C)CO)n2)cc1C1CC1NS(=O)(=O)CCC(F)(F)F (some centres unmarked) [Example 27]
28,1 to 10 nM,Cc1cc(F)c(C(=O)Nc2cccc(-c3nncn3[C@H](C)CO)n2)cc1C1CC1NS(=O)(=O)N(C)C (some centres unmarked) [Example 28]
29,1 to 10 nM,Cc1cc(F)c(C(=O)Nc2cccc(-c3nncn3[C@H](C)CO)n2)cc1C1CC1NC(=O)C(C)(C)C (some centres unmarked) [Example 29]
